# According to patent US8518911B2, “Pyrazolo[1,5-a]pyridines as MARK inhibitors” (Merck Sharp & Dohme Corp., priority 2008, dated 2013):
# Molecular target: T1, recombinant MARK3 enzyme (Homo sapiens, UniProt P27448)
# T1 construct: purchased University of Dundee
# Assay: MARK 3 Assay (HTRF, Cdc25C biotinylated peptide substrate)
# Assay type: biochemical
# Details: MARK3, 10 μM ATP, 1 μM peptide substrate, 2 hours at 25° C.
# Experimental: MARK3 activity was assayed in vitro using a Cdc25C biotinylated peptide substrate (Cell Signalling Technologies). The phosphopeptide product was quantitated using a Homogenous Time-Resolved Fluorescence (HTRF) assay system (Park et al., 1999, Anal. Biochem. 269:94-104). The reaction mixture contained 50 mM HEPES/Tris-HCl, pH 7.4; […], 5 mM MgCl2, 0.2 mM NaVO4, 5 mM β-glycerol phosphate, 0.1% Tween-20, 2 mM dithiothreitol, 0.1% BSA, 10 μM ATP, 1 μM peptide substrate, and 10 nM recombinant MARK3 enzyme (University of Dundee) in a final volume of 12 μL. The buffer additionally contained protease inhibitor cocktail (Roche EDTA-free, 1 tab per 50 ml). The kinase reaction was incubated for 2 hours at 25° C., and then terminated with 3 μl Stop/Detection Buffer (50 mM HEPES, pH 7.0, 16.6 mM EDTA, 0.5M KF, 0.1% Tween-20, 0.1% BSA, 2 μg/ml SLX^ent 665 (CISBIO), and 2 μg/mL Eu^3+ cryptate label antibody (CISBIO)). The reaction was allowed to equilibrate overnight at 0° C., and relative fluorescent units were read on an HTRF enabled plate reader (e.g. TECAN GENios Pro).
# Inhibitor compounds were assayed in the reaction described above to determine compound IC50s. Aliquots of compound dissolved in DMSO were added to the reaction wells in a third-log dilution series covering a range of 1 nM to 10 μM. Relative phospho substrate formation, read as HTRF fluorescence units, was measured over the range of compound concentrations and a titration curve generated.
# T1 sequence (P27448 whole entry, species assumed): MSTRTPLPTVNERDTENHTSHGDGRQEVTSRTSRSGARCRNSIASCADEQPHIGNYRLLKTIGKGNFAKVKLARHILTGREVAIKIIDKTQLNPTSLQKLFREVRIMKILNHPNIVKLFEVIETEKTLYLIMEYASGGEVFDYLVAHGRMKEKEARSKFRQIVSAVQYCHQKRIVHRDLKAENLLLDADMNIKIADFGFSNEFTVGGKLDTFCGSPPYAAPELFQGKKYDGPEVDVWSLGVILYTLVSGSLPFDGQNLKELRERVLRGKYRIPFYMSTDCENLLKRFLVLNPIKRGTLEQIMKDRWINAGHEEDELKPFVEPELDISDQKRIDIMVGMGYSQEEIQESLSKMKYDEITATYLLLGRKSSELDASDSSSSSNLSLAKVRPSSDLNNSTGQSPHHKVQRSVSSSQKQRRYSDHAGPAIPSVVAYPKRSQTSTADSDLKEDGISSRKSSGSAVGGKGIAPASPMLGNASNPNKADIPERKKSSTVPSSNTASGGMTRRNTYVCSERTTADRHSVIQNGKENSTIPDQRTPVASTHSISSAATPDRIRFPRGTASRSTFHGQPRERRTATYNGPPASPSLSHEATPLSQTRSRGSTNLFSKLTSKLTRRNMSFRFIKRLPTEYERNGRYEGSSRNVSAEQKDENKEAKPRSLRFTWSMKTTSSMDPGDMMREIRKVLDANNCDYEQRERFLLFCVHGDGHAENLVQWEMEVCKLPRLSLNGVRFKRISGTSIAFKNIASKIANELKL
row,SMILES,IC50 [nM]
1,"C=C(C)c1ccc2c(-c3csc(C(=O)N[C@@H]4[C@@H](N)CCCC4(F)F)n3)cnn2c1 [Example 157, N-[(1R,6S)-6-Amino-2,2-difluorocyclohexyl]-4-(6-isopropenylpyrazolo[1,5-a]pyridin-3-yl)-1,3-thiazole-2-carboxamide]",0.5
2,"Cc1sc(C(=O)NC(CN)c2ccccc2)nc1-c1cnn2cc(-c3cnn(C)c3)ccc12 (stereo not drawn) [Example 182, N-(2-Amino-1-phenylethyl)-5-methyl-4-[6-(1-methyl-1H-pyrazol-4-yl)pyrazolo[1,5-a]pyridin-3-yl]-1,3-thiazole-2-carboxamide]",13
3,"N[C@@H]1CCCC(F)(F)[C@@H]1NC(=O)c1cc(-c2cnn3ccccc23)c(Cl)s1 [Example 206, N-[(1R,6R)-6-amino-2,2-difluorocyclohexyl]-5-chloro-4-pyrazolo[1,5-a]pyridin-3-yl-2-thiophenecarboxamide]",19

# The remaining lines, values ahead:
row,IC50 [nM],SMILES
1,4,"N[C@H]1CCCC(F)(F)[C@@H]1NC(=O)c1nc(-c2cnn3ccccc23)c(Cl)s1 [Example 7, N-[(1R,6S)-6-Amino-2,2-difluorocyclohexyl]-5-chloro-4-pyrazolo[1,5-a]pyridin-3-yl-1,3-thiazole-2-carboxamide]"
2,29,"CCc1sc(C(=O)N[C@@H]2[C@@H](N)CCCC2(F)F)cc1-c1cnn2cc(F)ccc12 [Example 170, N-[(1R,6S)-6-Amino-2,2-difluorocyclohexyl]-5-ethyl-4-(6-fluoropyrazolo[1,5-a]pyridin-3-yl)thiophene-2-carboxamide]"
3,21,N[C@@H]1CCCC(F)(F)[C@@H]1NC(=O)c1nc(-c2cnn3cc(-c4ccc(F)cc4)ccc23)c(Cl)s1 [Example 1]
